Measurements reported in patent US20020137929A1, “1 - (3-heterocyclylphenyl) isothiourea, -isourea, -guanidine and -amidine herbicidal agents” (Intellectual Property Department, BASF Aktiengesellschaft, priority 1998, published 2002).

Legend:
[1] = test system: CHEAL (Lambsquarters, Common); experiment: Preemergence herbicidal evaluation; type: in vivo, Chenopodium album; details: rated 4-5 weeks after treatment
In short: (§1)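 Each species is sown separately in potting soil over roughly an inch of soil before any emergence. The soil surface then receives an aqueous acetone spray delivering about 0.0156 to 0.500 kg/ha of compound. After four to five weeks, injury is scored from 0 to 9 relative to a control.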

[2] = test system: CYPIR (Rice Flatsedge); experiment: Preemergence weed control under flooded paddy conditions; type: in vivo, Cyperus iria; details: rated 3-4 weeks after treatment
In short: (§2)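 Visual injury scored 0-9 against control three to four weeks post-treatment, greenhouse-grown. Application: acetone/water (50/50) solutions dosed directly into flood water (1.5-3 cm over silt loam, planted top 0.5 cm), roughly 0.0313 to 0.500 kg/ha active ingredient.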

[3] = test system: CASOB (Sicklepod); experiment: Postemergence herbicidal evaluation; type: in vivo, Cassia obtusifolia
In short: (§3)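 Herbicidal effect was judged by eye on a 0–9 scale covering stand, vigor, deformity, size and chlorosis, compared with controls, four to five weeks after seedlings about two weeks old were sprayed (40 psi, ~0.0156–0.500 kg/ha).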

[4] = test system: CYPSE (Flatsedge); experiment: Postemergence weed control under flooded paddy conditions; type: in vivo, Cyperus serotinus; details: postemergence weeds, 3-4 weeks after treatment
In short: (§4)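 Flood-water application, about 0.0313–0.500 kg/ha a.i. in aqueous/acetone 50/50 v/v; water depth 1.5–3 cm throughout. Weeds 3–5 cm, rice 1.5–2.5 leaf. Greenhouse; 0–9 visual rating vs control at 3–4 wk.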

[5] = test system: CYPSE (Flatsedge); experiment: Preemergence weed control under flooded paddy conditions; type: in vivo, Cyperus serotinus; details: rated 3-4 weeks after treatment
In short: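 Greenhouse paddy assay. Acetone/water (50/50 v/v) solutions dosed into flood water, equivalent to about 0.0313 to 0.500 kg/ha active ingredient, over seeds planted 0.5 cm deep in silt loam. Score: 0-9 visual, based on stand, vigor, malformation, size and chlorosis, 3 to 4 weeks after treatment.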

[6] = test system: ECHORC (Watergrass (Calif.)); experiment: as above; type: in vivo, Echinochloa oryzoides; details: rated 3-4 weeks after treatment
In short: as §2

[7] = test system: ORYSAT (Rice, Tebonnet); experiment: Preemergence herbicidal evaluation; type: in vivo, Oryza sativa, (L.) Tebonnet; details: rated 4-5 weeks after treatment
In short: as §1

[8] = test system: GALAP (Galium); experiment: Postemergence herbicidal evaluation; type: in vivo, Galium aparine
In short: as §3

[9] = test system: ZEAMX (Corn, Field); experiment: Preemergence herbicidal evaluation; type: in vivo, Zea mays; details: rated 4-5 weeks after treatment
In short: as §1

[10] = test system: ZEAMX (Corn, Field); experiment: Postemergence herbicidal evaluation; type: in vivo, Zea mays
In short: as §3

[11] = test system: AMBEL (Ragweed, Common); experiment: Preemergence herbicidal evaluation; type: in vivo, Ambrosia artemisifolia; details: rated 4-5 weeks after treatment
In short: as §1

[12] = test system: TRZAWR (Wheat, Winter, cv Riband); experiment: Preemergence herbicidal evaluation; type: in vivo, Triticum aestivum; details: rated 4-5 weeks after treatment
In short: as §1

[13] = test system: IPOHE (Morningglory, Ivyleaf); experiment: Preemergence herbicidal evaluation; type: in vivo, Ipomoea hederacea; details: rated 4-5 weeks after treatment
In short: as §1

[14] = test system: ECHORC (Watergrass (Calif.)); experiment: Postemergence weed control under flooded paddy conditions; type: in vivo, Echinochloa oryzoides; details: postemergence weeds, 3-4 weeks after treatment
In short: as §4

CCOC(=O)COc1ccccc1CC1S/C(=N/c2cc(-n3c(=O)cc(C(F)(F)F)n(C)c3=O)c(F)cc2Cl)N(CC(=O)OCC)C1=O (stereo not shown) [Compound 42, 2-{{2-Chloro-5-[3,6-dihydro-3-methyl-2,6-dioxo-4-(trifluoromethyl)-1(2H)-pyrimidinyl]-4-fluoro-phenyl}imino}-5-(o-hydroxybenzyl)-4-oxo-3-thiazolidineacetic acid, ethyl ester, ester with ethyl glycolate]
4.5: Postemergence herbicidal rating ZEAMX ([10]; Rate 0.0158 kg/ha) | Postemergence herbicidal rating ZEAMX ([10]; Rate 0.0315 kg/ha) | Postemergence herbicidal rating ZEAMX ([10]; Rate 0.0630 kg/ha)
1.0: Preemergence herbicidal rating CHEAL ([1]; rate 0.0625 kg/ha) | Postemergence herbicidal rating GALAP ([8]; Rate 0.0158 kg/ha) | Preemergence herbicidal rating ZEAMX ([9]; rate 0.0625 kg/ha) | Preemergence herbicidal rating ZEAMX ([9]; rate 0.2500 kg/ha)
9.0: Preemergence herbicidal rating CHEAL ([1]; rate 0.2500 kg/ha)
7.0: Postemergence herbicidal rating CASOB ([3]; Rate 0.0630 kg/ha)
0.0: Preemergence herbicidal rating CHEAL ([1]; rate 0.0313 kg/ha) | Herbicidal rating CYPIR ([2]; 0.0313 kg/ha) | Herbicidal rating CYPIR ([2]; 0.0625 kg/ha) | Herbicidal rating CYPIR ([2]; 0.1250 kg/ha) | Herbicidal rating CYPIR ([2]; 0.2500 kg/ha) | Herbicidal rating CYPSE ([4]; rate 0.0313 kg/ha) | Herbicidal rating CYPSE ([4]; rate 0.0625 kg/ha) | Herbicidal rating CYPSE ([4]; rate 0.1250 kg/ha) | Herbicidal rating CYPSE ([4]; rate 0.2500 kg/ha) | Herbicidal rating CYPSE ([5]; 0.0313 kg/ha) | Herbicidal rating CYPSE ([5]; 0.0625 kg/ha) | Herbicidal rating CYPSE ([5]; 0.1250 kg/ha) | Herbicidal rating CYPSE ([5]; 0.2500 kg/ha) | Preemergence herbicidal rating ORYSAT ([7]; rate 0.0313 kg/ha) | Preemergence herbicidal rating ORYSAT ([7]; rate 0.0625 kg/ha) | Preemergence herbicidal rating ORYSAT ([7]; rate 0.1250 kg/ha) | Preemergence herbicidal rating ORYSAT ([7]; rate 0.2500 kg/ha) | Preemergence herbicidal rating ZEAMX ([9]; rate 0.0313 kg/ha) | Preemergence herbicidal rating ZEAMX ([9]; rate 0.1250 kg/ha) | Preemergence herbicidal rating AMBEL ([11]; rate 0.0313 kg/ha) | Preemergence herbicidal rating AMBEL ([11]; rate 0.0625 kg/ha) | Preemergence herbicidal rating AMBEL ([11]; rate 0.1250 kg/ha) | Preemergence herbicidal rating TRZAWR ([12]; rate 0.0313 kg/ha) | Preemergence herbicidal rating TRZAWR ([12]; rate 0.0625 kg/ha) | Preemergence herbicidal rating TRZAWR ([12]; rate 0.1250 kg/ha) | Preemergence herbicidal rating TRZAWR ([12]; rate 0.2500 kg/ha) | Preemergence herbicidal rating IPOHE ([13]; rate 0.0313 kg/ha) | Preemergence herbicidal rating IPOHE ([13]; rate 0.0625 kg/ha) | Preemergence herbicidal rating IPOHE ([13]; rate 0.1250 kg/ha) | Preemergence herbicidal rating IPOHE ([13]; rate 0.2500 kg/ha)
4.0: Postemergence herbicidal rating CASOB ([3]; Rate 0.0158 kg/ha)
3.0: Preemergence herbicidal rating CHEAL ([1]; rate 0.1250 kg/ha) | Postemergence herbicidal rating CASOB ([3]; Rate 0.0315 kg/ha) | Postemergence herbicidal rating GALAP ([8]; Rate 0.0315 kg/ha) | Postemergence herbicidal rating GALAP ([8]; Rate 0.0630 kg/ha)
6.0: Herbicidal rating ECHORC ([6]; 0.2500 kg/ha) | Preemergence herbicidal rating AMBEL ([11]; rate 0.2500 kg/ha) | Herbicidal rating ECHORC ([14]; rate 0.2500 kg/ha)
5.0: Herbicidal rating ECHORC ([6]; 0.0313 kg/ha) | Herbicidal rating ECHORC ([6]; 0.0625 kg/ha) | Herbicidal rating ECHORC ([6]; 0.1250 kg/ha) | Herbicidal rating ECHORC ([14]; rate 0.0313 kg/ha) | Herbicidal rating ECHORC ([14]; rate 0.0625 kg/ha) | Herbicidal rating ECHORC ([14]; rate 0.1250 kg/ha)

C=CCN1C(=O)C(CC(=O)Nc2ccccc2)SC1=Nc1cc(-n2c(=O)cc(C(F)(F)F)n(C)c2=O)c(F)cc1Cl (stereo not shown) [Compound 44, 3-Allyl-2-{{2-chloro-5-[3,6-dihydro-3-methyl-2,6-dioxo-4-(trifluoromethyl)-1(2H)-pyrimidinyl]-4-fluorophenyl}imino}-4-oxo-5-thiazolidineacetanilide]
6.0: Herbicidal rating CYPIR ([2]; 0.0625 kg/ha) | Herbicidal rating CYPIR ([2]; 0.1250 kg/ha) | Herbicidal rating ECHORC ([6]; 0.0313 kg/ha) | Herbicidal rating ECHORC ([6]; 0.0625 kg/ha) | Herbicidal rating ECHORC ([14]; rate 0.0313 kg/ha) | Herbicidal rating ECHORC ([14]; rate 0.0625 kg/ha)
7.0: Herbicidal rating ECHORC ([6]; 0.1250 kg/ha) | Herbicidal rating ECHORC ([14]; rate 0.1250 kg/ha)
3.0: Preemergence herbicidal rating CHEAL ([1]; rate 0.0156 kg/ha)
1.0: Postemergence herbicidal rating GALAP ([8]; Rate 0.0313 kg/ha) | Postemergence herbicidal rating GALAP ([8]; Rate 0.0625 kg/ha) | Postemergence herbicidal rating GALAP ([8]; Rate 0.1250 kg/ha) | Preemergence herbicidal rating ZEAMX ([9]; rate 0.1250 kg/ha) | Preemergence herbicidal rating IPOHE ([13]; rate 0.1250 kg/ha)
0.0: Postemergence herbicidal rating CASOB ([3]; Rate 0.0156 kg/ha) | Postemergence herbicidal rating CASOB ([3]; Rate 0.0313 kg/ha) | Herbicidal rating CYPSE ([4]; rate 0.0313 kg/ha) | Herbicidal rating CYPSE ([4]; rate 0.0625 kg/ha) | Herbicidal rating CYPSE ([4]; rate 0.1250 kg/ha) | Herbicidal rating CYPSE ([4]; rate 0.2500 kg/ha) | Herbicidal rating CYPSE ([5]; 0.0313 kg/ha) | Herbicidal rating CYPSE ([5]; 0.0625 kg/ha) | Herbicidal rating CYPSE ([5]; 0.1250 kg/ha) | Herbicidal rating CYPSE ([5]; 0.2500 kg/ha) | Preemergence herbicidal rating ORYSAT ([7]; rate 0.0156 kg/ha) | Preemergence herbicidal rating ORYSAT ([7]; rate 0.0313 kg/ha) | Preemergence herbicidal rating ORYSAT ([7]; rate 0.0625 kg/ha) | Preemergence herbicidal rating ORYSAT ([7]; rate 0.1250 kg/ha) | Preemergence herbicidal rating ORYSAT ([7]; rate 0.2500 kg/ha) | Preemergence herbicidal rating ORYSAT ([7]; rate 0.5000 kg/ha) | Postemergence herbicidal rating GALAP ([8]; Rate 0.0156 kg/ha) | Preemergence herbicidal rating ZEAMX ([9]; rate 0.0156 kg/ha) | Preemergence herbicidal rating ZEAMX ([9]; rate 0.0313 kg/ha) | Preemergence herbicidal rating ZEAMX ([9]; rate 0.0625 kg/ha) | Preemergence herbicidal rating ZEAMX ([9]; rate 0.2500 kg/ha) | Preemergence herbicidal rating ZEAMX ([9]; rate 0.5000 kg/ha) | Preemergence herbicidal rating AMBEL ([11]; rate 0.0156 kg/ha) | Preemergence herbicidal rating AMBEL ([11]; rate 0.0313 kg/ha) | Preemergence herbicidal rating AMBEL ([11]; rate 0.0625 kg/ha) | Preemergence herbicidal rating AMBEL ([11]; rate 0.1250 kg/ha) | Preemergence herbicidal rating TRZAWR ([12]; rate 0.0156 kg/ha) | Preemergence herbicidal rating TRZAWR ([12]; rate 0.0313 kg/ha) | Preemergence herbicidal rating TRZAWR ([12]; rate 0.0625 kg/ha) | Preemergence herbicidal rating TRZAWR ([12]; rate 0.1250 kg/ha) | Preemergence herbicidal rating TRZAWR ([12]; rate 0.2500 kg/ha) | Preemergence herbicidal rating TRZAWR ([12]; rate 0.5000 kg/ha) | Preemergence herbicidal rating IPOHE ([13]; rate 0.0156 kg/ha) | Preemergence herbicidal rating IPOHE ([13]; rate 0.0313 kg/ha) | Preemergence herbicidal rating IPOHE ([13]; rate 0.0625 kg/ha) | Preemergence herbicidal rating IPOHE ([13]; rate 0.2500 kg/ha) | Preemergence herbicidal rating IPOHE ([13]; rate 0.5000 kg/ha)
9.0: Preemergence herbicidal rating CHEAL ([1]; rate 0.1250 kg/ha) | Preemergence herbicidal rating CHEAL ([1]; rate 0.2500 kg/ha) | Preemergence herbicidal rating CHEAL ([1]; rate 0.5000 kg/ha) | Herbicidal rating CYPIR ([2]; 0.2500 kg/ha)
5.0: Preemergence herbicidal rating CHEAL ([1]; rate 0.0313 kg/ha) | Herbicidal rating CYPIR ([2]; 0.0313 kg/ha) | Postemergence herbicidal rating ZEAMX ([10]; Rate 0.0156 kg/ha) | Postemergence herbicidal rating ZEAMX ([10]; Rate 0.0313 kg/ha) | Postemergence herbicidal rating ZEAMX ([10]; Rate 0.0625 kg/ha) | Postemergence herbicidal rating ZEAMX ([10]; Rate 0.1250 kg/ha)
8.0: Herbicidal rating ECHORC ([6]; 0.2500 kg/ha) | Herbicidal rating ECHORC ([14]; rate 0.2500 kg/ha)
4.0: Preemergence herbicidal rating CHEAL ([1]; rate 0.0625 kg/ha) | Preemergence herbicidal rating AMBEL ([11]; rate 0.5000 kg/ha)
2.0: Postemergence herbicidal rating CASOB ([3]; Rate 0.0625 kg/ha) | Postemergence herbicidal rating CASOB ([3]; Rate 0.1250 kg/ha) | Preemergence herbicidal rating AMBEL ([11]; rate 0.2500 kg/ha)
